Reference: the NIST ThermoML archive (doi:10.1016/j.jct.2013.05.024)

Experiment: excess molar enthalpy (molar enthalpy of mixing); xn = mol fraction of the nth substance listed
Settings: 101.3 kPa, Liquid, Isoperibol calorimetry

CCOC(=O)C(=O)OCC [diethyl ethanedioate] + CC(C)O
excess molar enthalpy [kcal/mol]
Settings | 288.2 K | 298.2 K | 313.2 K | 328.2 K
x1 = 0.0492 | 0.124 | 0.131 | 0.14 | 0.145
x1 = 0.0997 | 0.225 | 0.247 | 0.269 | 0.287
x1 = 0.1514 | 0.3023 | 0.332 | 0.3647 | 0.3903
x1 = 0.2009 | 0.3566 | 0.3936 | 0.4376 | 0.4658
x1 = 0.2507 | 0.4092 | 0.4541 | 0.5005 | 0.5368
x1 = 0.3005 | 0.4379 | 0.4852 | 0.5394 | 0.5741
x1 = 0.3499 | 0.4682 | 0.517 | 0.5717 | 0.6092
x1 = 0.3987 | 0.4837 | 0.5344 | 0.5896 | 0.635
x1 = 0.4504 | 0.4962 | 0.5461 | 0.6052 | 0.6417
x1 = 0.501 | 0.4976 | 0.5447 | 0.6033 | 0.6405
x1 = 0.55 | 0.4995 | 0.5442 | 0.5942 | 0.6317
x1 = 0.6018 | 0.4876 | 0.5284 | 0.5772 | 0.6126
x1 = 0.6515 | 0.4696 | 0.5072 | 0.5485 | 0.5774
x1 = 0.6985 | 0.4419 | 0.4763 | 0.5143 | 0.5385
x1 = 0.7478 | 0.4046 | 0.4319 | 0.4673 | 0.4847
x1 = 0.7996 | 0.354 | 0.3762 | 0.3984 | 0.4166
x1 = 0.8479 | 0.2935 | 0.308 | 0.3279 | 0.3356
x1 = 0.8985 | 0.217 | 0.223 | 0.238 | 0.235
x1 = 0.9515 | 0.118 | 0.112 | 0.114 | 0.121
